Reference: ChEMBL document CHEMBL1201862, “PubChem BioAssay data set” (2004)
Calls of active or inactive are those of the source.

Experiments:
[1] = target: T1, Protein skinhead-1 (Caenorhabditis elegans, UniProt P34707); assay type: functional
T1 sequence (P34707 whole entry): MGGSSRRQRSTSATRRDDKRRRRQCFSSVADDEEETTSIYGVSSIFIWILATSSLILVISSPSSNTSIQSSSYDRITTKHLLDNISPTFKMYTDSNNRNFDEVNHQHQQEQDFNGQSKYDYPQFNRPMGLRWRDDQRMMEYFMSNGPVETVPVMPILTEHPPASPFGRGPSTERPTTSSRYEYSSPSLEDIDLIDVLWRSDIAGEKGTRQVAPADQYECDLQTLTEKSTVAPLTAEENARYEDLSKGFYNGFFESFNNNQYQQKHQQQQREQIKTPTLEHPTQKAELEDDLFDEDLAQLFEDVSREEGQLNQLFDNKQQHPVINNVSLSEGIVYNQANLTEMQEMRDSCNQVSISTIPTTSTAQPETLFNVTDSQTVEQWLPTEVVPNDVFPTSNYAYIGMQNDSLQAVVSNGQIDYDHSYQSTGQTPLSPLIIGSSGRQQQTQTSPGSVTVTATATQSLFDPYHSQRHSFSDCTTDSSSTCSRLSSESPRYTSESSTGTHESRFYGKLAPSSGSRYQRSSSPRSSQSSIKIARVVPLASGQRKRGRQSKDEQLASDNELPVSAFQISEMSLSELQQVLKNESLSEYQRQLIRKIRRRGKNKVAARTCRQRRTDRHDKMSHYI

[2] = target: T2, DNA repair and recombination protein RAD54-like (Homo sapiens, UniProt Q92698); test: inhibitors of human RAD54 branch migration, confirmation, biochemical, fluorescence, cherry-picked samples, dose series (AID 651657); assay type: functional
T2 sequence (Q92698 whole entry): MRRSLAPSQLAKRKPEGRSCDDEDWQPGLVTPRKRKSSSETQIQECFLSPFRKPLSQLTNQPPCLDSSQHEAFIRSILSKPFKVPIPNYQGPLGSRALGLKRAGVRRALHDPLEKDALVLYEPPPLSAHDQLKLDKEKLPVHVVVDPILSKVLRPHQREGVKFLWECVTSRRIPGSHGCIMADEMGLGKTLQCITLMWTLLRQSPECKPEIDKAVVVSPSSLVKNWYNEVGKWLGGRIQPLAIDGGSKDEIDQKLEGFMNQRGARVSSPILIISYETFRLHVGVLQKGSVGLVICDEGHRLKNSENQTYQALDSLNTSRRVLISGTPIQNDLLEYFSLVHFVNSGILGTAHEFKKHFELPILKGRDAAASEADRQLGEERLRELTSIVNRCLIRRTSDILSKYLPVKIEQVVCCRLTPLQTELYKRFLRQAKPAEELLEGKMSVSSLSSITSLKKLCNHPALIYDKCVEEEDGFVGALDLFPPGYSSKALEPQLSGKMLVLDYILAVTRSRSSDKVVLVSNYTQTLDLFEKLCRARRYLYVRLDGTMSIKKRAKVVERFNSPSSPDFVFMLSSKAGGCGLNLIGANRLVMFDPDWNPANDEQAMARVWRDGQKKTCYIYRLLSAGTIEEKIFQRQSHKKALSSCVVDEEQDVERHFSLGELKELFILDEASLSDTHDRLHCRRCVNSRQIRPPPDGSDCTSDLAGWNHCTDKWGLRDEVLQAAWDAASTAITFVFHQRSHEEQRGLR

[3] = tested on: H9c2; test: cells; assay type: functional, cell-based; conditions: Rattus norvegicus, H9c2, Myocardium;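 further: confirmatory concentration-response retest of ultra-high-throughput screening hits for modulation of myocardial damage; cell death induced by hydrogen peroxide oxidative stress; compound pretreatment for 60 min then peroxide exposure for 2 h; potency is for protecting the cells against peroxide damage rather than for killing them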
[4] = inhibitors of firefly luciferase expression or activity, dose response, H4 neuroglioma cells, luminescence (AID 1990); assay type: functional, cell-based
[5] = inhibitors of SNCA 5'UTR-driven reporter translation, confirmation, H4 neuroglioma cells, luminescence (AID 1988); assay type: functional, cell-based
[6] = Luminescence Cell-Based Dose Response HTS to Identify Inhibitors of 5'UTR Stem-Loop Driven Prion Protein mRNA Translation in H4 Neuroglioblastoma Cells. [Related pubchem assays: 1827 (Project Summary), 1813 (Primary HTS)]; assay type: functional
[7] = cytotoxicity in HEK-293T cells, dose response, cytotoxicity control for TCR NF-kB inhibitor project, luminescence, T-cell screen hits (AID 489026); assay type: functional, cell-based;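 further: cells exposed to compound about 14 hours before the viability readout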
[8] = NIH-3T3 fibroblast cytotoxicity, dose response, cytotoxicity control, cell-based, fluorescence, Alamar Blue, secondary assay (AID 2327); assay type: functional;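 further: NIH-3T3 mouse fibroblasts cultured with fluconazole at 8 µg/mL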
[9] = C. albicans growth with fluconazole, confirmation, fluorescence, retest (AID 2467); assay type: functional, cell-based
[10] = target: T3, Heat shock factor protein 1 (Mus musculus, UniProt P38532); test: HSF1 potentiators in luciferase reporter cells, confirmation, cell-based, NIH3T3, luminescence, dose retest (AID 435004); assay type: functional;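 further: stress induced by proteasome inhibitor MG132 added 30 min after compound; luciferase reporter driven by HSF1 response element in NIH3T3 cells; actives raise luminescence as potentiators of the MG132 stress response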
T3 sequence (P38532 whole entry): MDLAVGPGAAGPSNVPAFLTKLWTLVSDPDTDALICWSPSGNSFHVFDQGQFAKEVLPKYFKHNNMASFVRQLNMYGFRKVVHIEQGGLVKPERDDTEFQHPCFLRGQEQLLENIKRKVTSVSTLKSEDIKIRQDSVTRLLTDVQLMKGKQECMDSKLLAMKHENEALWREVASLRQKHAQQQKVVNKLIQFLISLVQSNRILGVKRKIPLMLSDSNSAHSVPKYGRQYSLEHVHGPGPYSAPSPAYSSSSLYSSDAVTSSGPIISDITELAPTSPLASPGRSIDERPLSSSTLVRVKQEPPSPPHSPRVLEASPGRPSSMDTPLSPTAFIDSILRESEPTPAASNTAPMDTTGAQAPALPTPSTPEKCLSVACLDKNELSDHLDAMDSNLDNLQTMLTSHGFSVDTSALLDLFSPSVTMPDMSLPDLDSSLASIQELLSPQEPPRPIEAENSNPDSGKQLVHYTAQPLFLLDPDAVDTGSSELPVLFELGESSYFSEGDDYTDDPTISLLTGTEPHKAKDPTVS

[11] = tested on: BJ; test: cytotoxicity toward BJ-TERT-LT-ST fibroblasts, dose response, cell-based, RAS-independent, luminescence (AID 1935); assay type: functional; conditions: Homo sapiens;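 further: BJ fibroblasts immortalized with TERT plus LT and ST oncogenes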
[12] = growth suppression of PTEN-null colon cells, dose response, cell-based, HCT116 PTEN knockout (AID 1047); assay type: functional;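 further: HCT116 colon tumor cells with PTEN knocked out; cells exposed to compound for 60 hours before readout; potency for loss of cell viability measured by luminescence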
[13] = tested on: BJ; test: cells; assay type: functional, cell-based; conditions: Homo sapiens
[14] = tested on: BJ; test: cytotoxicity toward BJ-TERT fibroblasts, dose response, cell-based, RAS-independent, luminescence (AID 1933); assay type: functional; conditions: Homo sapiens
[15] = growth suppression of beta-catenin-knockout colon cells, dose response, cell-based, HCT116, human colon tumor (AID 1045); assay type: functional;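 further: HCT116 colon tumor cells with beta catenin knocked out; cells exposed to compound for 60 hours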
[16] = cytotoxicity toward DRD oncogenic fibroblasts, dose response, cell-based, non-viral oncogenic, luminescence (AID 1934); assay type: functional; conditions: Homo sapiens
[17] = tested on: BJ; test: cytotoxicity toward Ras-transformed BJeLR fibroblasts, dose response, cell-based, alamar blue fluorescence, cherrypicked samples (AID 2631); assay type: functional; conditions: Homo sapiens;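 further: confirmatory dose-response assay in RAS-dependent BJ fibroblasts engineered with TERT, LT and ST, with cytotoxicity read by fluorescence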
[18] = inhibitors of clade B AD8 Env fusion, dose response, cell-based, cherry-pick (AID 652062); assay type: functional;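 further: luciferase signal from cell-cell fusion driven by HIV-1 clade B AD8 Env; potency is for inhibitors of fusion seen as a drop in luminescence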
[19] = inhibitors of intracellular T. cruzi replication, confirmation, NIH3T3 host cells, beta-gal luminescence (AID 2044); assay type: functional, cell-based;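 further: intracellular parasites grown in NIH/3T3 mouse fibroblasts as host cells; luminescent beta-galactosidase reporter signal from transgenic T. cruzi replicating inside host cells; inhibitors lower the luminescence signal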
[20] = CEM21 lymphoblast cell cytotoxicity, dose response, cytotoxicity control for viral fusion inhibitor project, CellTiter-Glo luminescence, cherry-picked (AID 652042); assay type: functional, cell-based;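 further: potency for signal decrease meaning cytotoxicity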
[21] = cytotoxicity toward NIH3T3 fibroblasts, dose response, counter-screen, cell-based, ATP luminescence, mouse fibroblasts (AID 2010); assay type: functional;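 further: cells exposed to compound for about 90 hours before reading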
[22] = target: T4, Methionyl-tRNA synthetase, putative (Trypanosoma brucei brucei, UniProt Q38C91); assay type: functional, Trypanosoma brucei brucei strain 927/4 GUTat10.1
T4 sequence (Q38C91 whole entry): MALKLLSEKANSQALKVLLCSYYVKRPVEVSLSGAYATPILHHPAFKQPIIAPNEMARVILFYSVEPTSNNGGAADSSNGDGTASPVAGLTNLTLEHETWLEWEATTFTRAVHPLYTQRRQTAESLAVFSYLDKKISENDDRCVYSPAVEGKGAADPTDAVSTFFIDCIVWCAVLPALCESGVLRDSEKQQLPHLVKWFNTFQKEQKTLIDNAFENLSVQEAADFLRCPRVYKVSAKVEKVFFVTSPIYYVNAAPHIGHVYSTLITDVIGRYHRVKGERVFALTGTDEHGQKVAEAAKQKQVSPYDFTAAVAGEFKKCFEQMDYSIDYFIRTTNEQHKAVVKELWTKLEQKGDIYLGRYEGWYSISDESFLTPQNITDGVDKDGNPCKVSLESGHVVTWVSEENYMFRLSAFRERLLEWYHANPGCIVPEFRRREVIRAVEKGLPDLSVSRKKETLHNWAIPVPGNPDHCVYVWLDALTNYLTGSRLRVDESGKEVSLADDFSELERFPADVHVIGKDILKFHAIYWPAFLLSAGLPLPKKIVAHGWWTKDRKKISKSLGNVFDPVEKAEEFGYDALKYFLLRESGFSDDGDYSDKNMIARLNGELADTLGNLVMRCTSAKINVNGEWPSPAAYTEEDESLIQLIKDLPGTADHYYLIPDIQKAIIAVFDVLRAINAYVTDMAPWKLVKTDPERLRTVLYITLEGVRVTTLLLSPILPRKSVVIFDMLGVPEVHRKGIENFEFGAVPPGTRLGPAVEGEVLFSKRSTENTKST

[23] = target: T4, Methionyl-tRNA synthetase, putative; assay type: functional, Trypanosoma brucei brucei strain 927/4 GUTat10.1; remark: listed apart in the source
[24] = Counterscreen for inhibitors of Trypanosoma brucei methionyl tRNA synthetase (MetRS): Luminescence-based cell-based high throughput dose response assay to identify compounds that are cytotoxic to Jurkat human T lymphocyte cells.; assay type: functional

In the case of Cc1cccc(C)c1N(CC(=O)Nc1cccc(N(C)S(C)(=O)=O)c1)S(C)(=O)=O, the IC50 [1] is reported as > 100 µM (inactive).
For COc1ccc(C(=O)Nc2ccc3nc(N4CCN(C)CC4)cc(C)c3c2)c(OC)c1, the AC50 [2] was 32.9 µM (active).
For CCCC(c1nnnn1C(C)(C)CC)N(CCCO)Cc1cc2cc(C)cc(C)c2nc1O (stereo unspecified), the IC50 [3] was 38.7 µM (inactive).
With COc1ccc(NC(=O)c2ccc3c(c2)OCO3)cc1Cl the IC50 [1] was > 100 µM (inactive).
With CCOc1ccccc1N1CC(=O)C(c2nc3ccccc3s2)=C1N the EC50 [4] was 6.86 µM (inconclusive), the EC50 [5] was 4.59 µM (active) and the EC50 [6] was 10.1 µM (active). For the same molecule, the IC50 [7] was 44.6 µM (inactive) and the IC50 [3] was > 79 µM (inactive).
With CCCn1c(O)nnc1SCC(=O)c1ccc2c(c1)OCCO2 the IC50 [1] was > 100 µM (inactive).
With CCOC(=O)C(=Cc1cc(=O)c(OC)co1)C(=O)OCC the EC50 [8] was 8.28 µM (inconclusive), the EC50 [9] was 0.367 µM (active) and the EC50 [10] was 15.2 µM (active). For the same molecule, the EC50 [11] was 4.28 µM (active), the EC50 [12] was 3.55 µM (active) and the EC50 [13] was 7.57 µM (inconclusive). For the same molecule, the EC50 [14] was 8.75 µM (active), the EC50 [15] was 2.93 µM (active) and the EC50 [16] was 4.24 µM (inconclusive). The EC50 [17] was 0.592 µM (active).
With CN(c1ccccc1)c1nc2ccsc2c(=O)s1 the IC50 [1] was > 100 µM (inactive).
In the case of CCOC(=O)CSc1nnc(CSc2nc(O)c3ccccc3n2)n1-c1ccccc1, the IC50 [3] is reported as > 79 µM (inactive).
For c1coc(CNc2c3c(nc4ccccc24)CCC3)c1, the AC50 [18] was 32.9 µM (active), the EC50 [19] was 2.41 µM (active) and the EC50 [12] was 22.5 µM (active). The AC50 [20] was 65 µM (active), the EC50 [15] was 27.1 µM (active) and the EC50 [21] was > 60 µM (not active).
With O=C(NCCCCc1ccccc1)Nc1ccc(F)cc1 the IC50 [22] was 44.4 µM (inactive), the IC50 [23] was 119 µM (inactive) and the IC50 [24] was 83.4 µM (inactive).
